Test results: patent US9226916B2, “Pyrrolidine derivatives” (HOFFMANN-LA ROCHE INC., priority 2009, dated 2016)
Where two headings read alike, the source gives them in different places.

Molecular target: T1, recombinant human NK3 receptor (Homo sapiens, UniProt P29371)
T1 construct: expressed in transfected cells; host or cells: HEK293 cells, transient expression; membranes
T1 sequence (P29371 1-465): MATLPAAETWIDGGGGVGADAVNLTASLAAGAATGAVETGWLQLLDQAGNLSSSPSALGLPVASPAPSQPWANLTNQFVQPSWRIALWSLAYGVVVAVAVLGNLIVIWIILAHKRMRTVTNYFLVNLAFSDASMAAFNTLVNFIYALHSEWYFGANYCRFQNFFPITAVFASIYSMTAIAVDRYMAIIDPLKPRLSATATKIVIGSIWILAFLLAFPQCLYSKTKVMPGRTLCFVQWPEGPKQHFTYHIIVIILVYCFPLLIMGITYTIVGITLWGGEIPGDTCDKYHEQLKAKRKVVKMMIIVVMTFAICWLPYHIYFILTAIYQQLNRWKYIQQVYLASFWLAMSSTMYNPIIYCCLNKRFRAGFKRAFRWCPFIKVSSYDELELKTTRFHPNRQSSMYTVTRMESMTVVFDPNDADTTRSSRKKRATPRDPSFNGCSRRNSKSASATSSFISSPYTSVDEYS
Test: [3H]SR142801 competition binding assay

[1] = hNK-3 receptor affinity, membranes from HEK293 cells transiently expressing recombinant human NK3 receptor, [3H]SR142801, Cheng-Prussoff, read-out: Data Ki

Ki [1] [nM]	Structure (SMILES)	Ki [nM]	further results
	CN(C(=O)Oc1ccc(F)cc1)[C@@H]1CN(C(=O)C2CCN(c3ccc(C#N)nc3)CC2)C[C@H]1c1ccc(Cl)cc1 [Example 198, [(3S,4R)-4-(4-Chloro-phenyl)-1-(6′-cyano-3,4,5,6-tetrahydro-2H-[1,3]bipyridinyl-4-carbonyl)-pyrrolidin-3-yl]-methyl-carbamic acid 4-fluoro-phenyl ester]	0.5	
	CN(C(=O)Oc1ccc(F)cc1)[C@@H]1CN(C(=O)C2CCN(c3ccc(Cl)cn3)CC2)C[C@H]1c1ccc(Cl)cc1 [Example 199, [(3S,4R)-4-(4-Chloro-phenyl)-1-(5′-chloro-3,4,5,6-tetrahydro-2H-[1,2′]bipyridinyl-4-carbonyl)-pyrrolidin-3-yl]-methyl-carbamic acid 4-fluoro-phenyl ester]	0.9	
	CN(C(=O)Oc1ccccc1)[C@@H]1CN(C(=O)C2CCN(c3ccc(C#N)cn3)CC2)C[C@H]1c1ccc(Cl)cc1 [Example 200, [(3S,4R)-4-(4-Chloro-phenyl)-1-(5′-cyano-3,4,5,6-tetrahydro-2H-[1,2′]bipyridinyl-4-carbonyl)-pyrrolidin-3-yl]-methyl-carbamic acid phenyl ester]	7.2	
	COc1ccc(OC(=O)N(C)[C@@H]2CN(C(=O)C3CCN(c4ccc(C#N)cn4)CC3)C[C@H]2c2ccc(Cl)cc2)cc1 [Example 201, [(3S,4R)-4-(4-Chloro-phenyl)-1-(5′-cyano-3,4,5,6-tetrahydro-2H-[1,2′]bipyridinyl-4-carbonyl)-pyrrolidin-3-yl]-methyl-carbamic acid 4-methoxy-phenyl ester]	3.3	
	Cc1ccc(OC(=O)N(C)[C@@H]2CN(C(=O)C3CCN(c4ccc(C#N)cn4)CC3)C[C@H]2c2ccc(Cl)cc2)cc1 [Example 202, [(3S,4R)-4-(4-Chloro-phenyl)-1-(5′-cyano-3,4,5,6-tetrahydro-2H-[1,2′]bipyridinyl-4-carbonyl)-pyrrolidin-3-yl]-methyl-carbamic acid p-tolyl ester]	4.3	
	CN(C(=O)Oc1ccc(Cl)cc1)[C@@H]1CN(C(=O)C2CCN(c3ccc(C#N)cn3)CC2)C[C@H]1c1ccc(Cl)cc1 [Example 203, [(3S,4R)-4-(4-Chloro-phenyl)-1-(5′-cyano-3,4,5,6-tetrahydro-2H-[1,2′]bipyridinyl-4-carbonyl)-pyrrolidin-3-yl]-methyl-carbamic acid 4-chloro-phenyl ester]	0.3	
41.2	CN(C(=O)OC1CCCC1)[C@@H]1CN(C(=O)C2CCN(c3ccc(C#N)cn3)CC2)C[C@H]1c1ccc(Cl)cc1 [Example 204, [(3S,4R)-4-(4-Chloro-phenyl)-1-(5′-cyano-3,4,5,6-tetrahydro-2H-[1,2′]bipyridinyl-4-carbonyl)-pyrrolidin-3-yl]-methyl-carbamic acid cyclopentyl ester]		
	CN(C(=O)OCC(C)(C)C)[C@@H]1CN(C(=O)C2CCN(c3ccc(C#N)cn3)CC2)C[C@H]1c1ccc(Cl)cc1 [Example 205, [(3S,4R)-4-(4-Chloro-phenyl)-1-(5′-cyano-3,4,5,6-tetrahydro-2H-[1,2′]bipyridinyl-4-carbonyl)-pyrrolidin-3-yl]-methyl-carbamic acid 2,2-dimethyl-propyl ester]	5.7	
90.6	COCCOC(=O)N(C)[C@@H]1CN(C(=O)C2CCN(c3ccc(C#N)cn3)CC2)C[C@H]1c1ccc(Cl)cc1 [Example 206, [(3S,4R)-4-(4-Chloro-phenyl)-1-(5′-cyano-3,4,5,6-tetrahydro-2H-[1,2′]bipyridinyl-4-carbonyl)-pyrrolidin-3-yl]-methyl-carbamic acid 2-methoxy-ethyl ester]		
	CN(C(=O)Oc1ccc(C(F)(F)F)cc1)[C@@H]1CN(C(=O)C2CCN(c3ccc(C#N)cn3)CC2)C[C@H]1c1ccc(Cl)cc1 [Example 207, [(3S,4R)-4-(4-Chloro-phenyl)-1-(5′-cyano-3,4,5,6-tetrahydro-2H-[1,2′]bipyridinyl-4-carbonyl)-pyrrolidin-3-yl]-methyl-carbamic acid 4-trifluoromethyl-phenyl ester]	0.6	
	CN(C(=O)Oc1ccc(F)cc1F)[C@@H]1CN(C(=O)C2CCN(c3ccc(C#N)cn3)CC2)C[C@H]1c1ccc(Cl)cc1 [Example 208, [(3S,4R)-4-(4-Chloro-phenyl)-1-(5′-cyano-3,4,5,6-tetrahydro-2H-[1,2′]bipyridinyl-4-carbonyl)-pyrrolidin-3-yl]-methyl-carbamic acid 2,4-difluoro-phenyl ester]	0.4	
	CN(C(=O)Oc1ccc(F)c(F)c1)[C@@H]1CN(C(=O)C2CCN(c3ccc(C#N)cn3)CC2)C[C@H]1c1ccc(Cl)cc1 [Example 209, [(3S,4R)-4-(4-Chloro-phenyl)-1-(5′-cyano-3,4,5,6-tetrahydro-2H-[1,2′]bipyridinyl-4-carbonyl)-pyrrolidin-3-yl]-methyl-carbamic acid 3,4-difluoro-phenyl ester]	0.8	
	CN(C(=O)Oc1cc(F)cc(F)c1)[C@@H]1CN(C(=O)C2CCN(c3ccc(C#N)nc3)CC2)C[C@H]1c1ccc(Cl)cc1 [Example 210, [(3S,4R)-4-(4-Chloro-phenyl)-1-(6′-cyano-3,4,5,6-tetrahydro-2H-[1,3]bipyridinyl-4-carbonyl)-pyrrolidin-3-yl]-methyl-carbamic acid 3,5-difluoro-phenyl ester]		Ki (read-out: Data Ki): 4.6 nM
	CN(C(=O)Oc1cccc(F)c1F)[C@@H]1CN(C(=O)C2CCN(c3ccc(C#N)cn3)CC2)C[C@H]1c1ccc(Cl)cc1 [Example 211, [(3S,4R)-4-(4-Chloro-phenyl)-1-(5′-cyano-3,4,5,6-tetrahydro-2H-[1,2′]bipyridinyl-4-carbonyl)-pyrrolidin-3-yl]-methyl-carbamic acid 2,3-difluoro-phenyl ester]	2.4	
	CN(C(=O)Oc1ccccc1F)[C@@H]1CN(C(=O)C2CCN(c3ccc(C#N)cn3)CC2)C[C@H]1c1ccc(Cl)cc1 [Example 212, [(3S,4R)-4-(4-Chloro-phenyl)-1-(5′-cyano-3,4,5,6-tetrahydro-2H-[1,2′]bipyridinyl-4-carbonyl)-pyrrolidin-3-yl]-methyl-carbamic acid 2-fluoro-phenyl ester]	1.4	
	CN(C(=O)Oc1ccccc1Cl)[C@@H]1CN(C(=O)C2CCN(c3ccc(C#N)cn3)CC2)C[C@H]1c1ccc(Cl)cc1 [Example 213, [(3S,4R)-4-(4-Chloro-phenyl)-1-(5′-cyano-3,4,5,6-tetrahydro-2H-[1,2′]bipyridinyl-4-carbonyl)-pyrrolidin-3-yl]-methyl-carbamic acid 2-chloro-phenyl ester]	7.2	
94.2	CN(C(=O)OCCCF)[C@@H]1CN(C(=O)C2CCN(c3ccc(C#N)cn3)CC2)C[C@H]1c1ccc(Cl)cc1 [Example 214, [(3S,4R)-4-(4-Chloro-phenyl)-1-(5′-cyano-3,4,5,6-tetrahydro-2H-[1,2′]bipyridinyl-4-carbonyl)-pyrrolidin-3-yl]-methyl-carbamic acid 3-fluoro-propyl ester]		
8.4	CN(C(=O)OCC1CC1)[C@@H]1CN(C(=O)C2CCN(c3ccc(C#N)cn3)CC2)C[C@H]1c1ccc(Cl)cc1 [Example 215, [(3S,4R)-4-(4-Chloro-phenyl)-1-(5′-cyano-3,4,5,6-tetrahydro-2H-[1,2′]bipyridinyl-4-carbonyl)-pyrrolidin-3-yl]-methyl-carbamic acid cyclopropylmethyl ester]		
53.6	COCCCOC(=O)N(C)[C@@H]1CN(C(=O)C2CCN(c3ccc(C#N)cn3)CC2)C[C@H]1c1ccc(Cl)cc1 [Example 216, [(3S,4R)-4-(4-Chloro-phenyl)-1-(5′-cyano-3,4,5,6-tetrahydro-2H-[1,2′]bipyridinyl-4-carbonyl)-pyrrolidin-3-yl]-methyl-carbamic acid 3-methoxy-propyl ester]		
7.7	CN(C(=O)OCC1(C)CC1)[C@@H]1CN(C(=O)C2CCN(c3ccc(C#N)cn3)CC2)C[C@H]1c1ccc(Cl)cc1 [Example 217, [(3S,4R)-4-(4-Chloro-phenyl)-1-(5′-cyano-3,4,5,6-tetrahydro-2H-[1,2′]bipyridinyl-4-carbonyl)-pyrrolidin-3-yl]-methyl-carbamic acid 1-methyl-cyclopropylmethyl ester]		
19.5	CN(C(=O)OCC1(C)COC1)[C@@H]1CN(C(=O)C2CCN(c3ccc(C#N)cn3)CC2)C[C@H]1c1ccc(Cl)cc1 [Example 218, [(3S,4R)-4-(4-Chloro-phenyl)-1-(5′-cyano-3,4,5,6-tetrahydro-2H-[1,2′]bipyridinyl-4-carbonyl)-pyrrolidin-3-yl]-methyl-carbamic acid 3-methyl-oxetan-3-ylmethyl ester]		
3.6	CN(C(=O)OCCC1CC1)[C@@H]1CN(C(=O)C2CCN(c3ccc(C#N)cn3)CC2)C[C@H]1c1ccc(Cl)cc1 [Example 219, [(3S,4R)-4-(4-Chloro-phenyl)-1-(5′-cyano-3,4,5,6-tetrahydro-2H-[1,2′]bipyridinyl-4-carbonyl)-pyrrolidin-3-yl]-methyl-carbamic acid 2-cyclopropyl-ethyl ester]		
	CN(C(=O)O[C@H]1CC[C@@H](C)CC1)[C@@H]1CN(C(=O)C2CCN(c3ccc(C#N)cn3)CC2)C[C@H]1c1ccc(Cl)cc1 [Example 220, [(3S,4R)-4-(4-Chloro-phenyl)-1-(5′-cyano-3,4,5,6-tetrahydro-2H-[1,2′]bipyridinyl-4-carbonyl)-pyrrolidin-3-yl]-methyl-carbamic acid 4-methyl-cyclohexyl ester]	42.8	
